Three sequences from US10654896B2, “FoxP3-binding peptides and uses thereof” (FUNDACIÓN PARA LA INVESTIGACIÓN MÉDICA APLICADA, priority 2016, dated 2020) can be followed below.

Where no end group is shown, it is not given here. [ ]: non-standard residue; d: D form.

A short description of series [1]: Mouse liver microsomal stability. Type of series: in vitro ADME. The note with it: mouse liver microsomes. On the procedure:
(§1) The data collected were analyzed to calculate a half-life (t1/2, min) for tested peptides at a final concentration of 1 μM. Briefly, 5 μL of stock solution of tested peptide (10 mM) were diluted in 495 μL of 1:1 Methanol/Water (final concentration of 100 μM, 50% MeOH). Then, 50 μL of this intermediate solution were diluted in 450 μL of 100 mM potassium phosphate buffer to a concentration of 10 μM (working solution, 5% MeOH). The NADPH regenerating system contains β-Nicotinamide adenine dinucleotide phosphate (Sigma, Cat. # N0505), Isocitric acid (Sigma, Cat. #11252) and Isocitric dehydrogenase (Sigma, Cat. #12002) at a final concentration of 1 unit/mL at incubation.
(§2) Human liver microsomes were obtained from BD Gentest (Cat. #452117) and mouse liver microsomes from Xenotech (Cat. # M1000), to a final concentration of 0.7 mg protein/mL. A volume of 10 μL of peptide solution and 80 μL of microsome solution were added to a 96-well plate and incubated for 10 min at 37° C. The reaction was started by the addition of 10 μL of NADPH regenerating system and stopped by the addition of 300 μL of stop solution (ACN at 4° C., including 100 ng/mL Tolbutamide and 100 ng/mL of Labetalol as internal standard) at different incubation times (0, 5, 10, 20, 30 and 60 min). Concentrations of test compound were quantified by LC-MS/MS methodologies (Shimadzu LC 20-AD/API4000) using peak area ratio of analyte/internal standard and the percent loss of parent compound was calculated under each time point to determine the half-life.
A general note: Liver microsomes are vesicles of endoplasmic reticulum, rich in cytochrome P450 enzymes.

Series [2] is described as follows: Human liver microsomal stability. In kind it is in vitro ADME. The note with it: human liver microsomes. The protocol:
as §1, §2

Another series concerns CT26 tumor cells. The series is described as follows: Anti-tumor vaccination experiment (AH1 in IFA), CT26 challenge. The following applies: for effect on growth of CT26 colon cancer tumor: 10 nanomol/mice i.p. daily during 10 days after AH1/IFA, day 30 after injection of CT26. In kind it is in vivo, BALB/c. On the procedure:
For anti-tumor vaccination experiments, BALB/c animals immunized with 50 nanomol/mice of peptide AH1 emulsified in incomplete Freund adjuvant (IFA) (Casares et al., 2010, supra), were treated intraperitoneally with 10 nanomol/mice of the indicated Treg inhibitory peptide SEQ ID NO: 51 of the invention or with saline daily during 10 days. At day 10, mice were injected s.c. with 10^6 CT26 tumor cells. Tumor size was monitored twice a week with a calliper and it was expressed according to the formula V=(length×width2)/2. Mice were sacrificed when tumor size reached a volume greater than 4 cm^3.

In the next series the target is T1, human FOXP3 (FOXP3-6His) (Homo sapiens, UniProt Q9BZS1).
T1 construct: 6xHis (C); made in house; host or cells: E. coli BL21 (DE3)
T1 sequence (Q9BZS1 1-431): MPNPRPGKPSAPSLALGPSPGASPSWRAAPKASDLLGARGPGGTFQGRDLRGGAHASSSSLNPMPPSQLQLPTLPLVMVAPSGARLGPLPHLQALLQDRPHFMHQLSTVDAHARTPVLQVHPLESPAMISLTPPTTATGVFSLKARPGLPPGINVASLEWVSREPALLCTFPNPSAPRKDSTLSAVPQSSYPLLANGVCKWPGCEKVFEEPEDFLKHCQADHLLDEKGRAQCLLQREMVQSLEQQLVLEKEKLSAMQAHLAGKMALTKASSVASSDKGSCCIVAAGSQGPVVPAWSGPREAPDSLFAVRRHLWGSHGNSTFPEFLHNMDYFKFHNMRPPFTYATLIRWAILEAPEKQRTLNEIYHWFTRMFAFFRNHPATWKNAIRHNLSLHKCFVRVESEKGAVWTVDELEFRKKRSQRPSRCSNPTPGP
As to the kind of experiment: Peptide binding to FOXP3 by surface plasmon resonance (SPR). From the text:
Plasmid pET20b FOXP3-His was generated to produce the human FOXP3 tagged with 6 histidines at the C terminus of the protein. Briefly, plasmid pDEST15-FOXP3 (provided by Dr. Casal, Madrid, Spain) was used as template to amplify FOXP3 by PCR using the primers Upper FOXP3 Ndel catatgcccaaccccaggc (SEQ ID NO: 55) and Lower FOXP3 […] (SEQ ID NO: 56). The resulting fragment was subcloned in pET20b at Ndel and NotI sites. pET45b His-Runx1 was obtained by PCR of activated human CD4 T cells obtained from healthy volunteers (after the signature of an informed consent) using the primers Upper Runx1 atgcgtatccccgtagatg (SEQ ID NO: 57) and Lower Runx1 […] (SEQ ID NO: 58) and the fragment was cloned in pcDNA3.1. Then, pET45b and pcDNA3.1-Runx1 were digested with BamHI and NotI and ligated to obtain pET45b-Runx1. Plasmids were used to transform BL21 cells (DE3; Novagen, Schwalbach, Germany) for the expression of the recombinant protein. The transformed BL21 cells were grown in LB medium at 37° C. (1 liter of final culture medium) (with ampicilin 0.1 mg/ml). Once the OD of the culture was between 0.5 and 1.0, IPTG (0.4 mM, final concentration) was added. Bacteria were then cultured overnight in agitation and centrifuged for 10 min at 8000 rpm. Cell pellet was then resuspended in 4 ml Tris-HCl 0.1 M and frozen at −80° C. Cell pellet was then thawed and incubated with lisozyme (25 KU) and a protease inhibitor cocktail for 15 min at 30° C. before cell lysis induced with a French-press. The resultant pool was then centrifuged during 20 min at 11.000 rpm). The recombinant protein was purified from the soluble fraction of French-press cell extracts by affinity chromatography (Histrap, Pharmacia) following manufacturer's instructions and using an FPLC platform (AKTA, Pharmacia). Plasmid pDEST15-FOXP3 encoding the fusion protein GST-FOXP3 (GST fused to the isoform A from human FOXP3 gene), was transformed into BL21 cells for the expression of the recombinant protein. GST-FOXP3 protein was purified from the soluble fraction of cell extracts obtained, as described above, by affinity chromatography (GSTrap; Amersham, Piscataway, N.J.) using a fast protein liquid chromatography platform (AKTA; Amersham) following manufacturer's instructions. The eluted proteins were desalted using Hitrap desalting columns (Pharmacia) and analyzed by SDS-PAGE using Coomassie blue (Bio-Safe Coomassie reagent; Bio-Rad, Hercules, Calif.) and by Western blot.
Screening of peptide binding to FOXP3 was performed by surface plasmon resonance (SPR) using ProteOn XPR36 (Bio-Rad, Hercules Calif., USA) optical biosensor. Recombinant protein FOXP3-6His was produced and purified from E. coli as disclosed in previous section and was immobilized covalently onto a GLM sensor chip (176-5012, Bio-Rad) using sulfo-NHS and EDC (Bio-Rad) coupling reagents and the manufacturer's instructions. After protein immobilization, chip surface was treated with ethanolamine to deactivate the excess of reactive esters.
Individual solutions of the peptides to be tested (1-20 μM) were injected by triplicate in running buffer (Phosphate buffered saline, 0.005% (v/v) Tween 20, pH 7.4) at a flow of 30 μl/min. The interspot signal (obtained in the chip surface not immobilized with protein) was used as reference. The results are summarized in Table 6 below as the ratio Peptide of the invention/p60.
Background: Surface plasmon resonance follows binding to a sensor surface in real time, without labels.

The next series concerns Hepa-129 cells. As to the kind of experiment: Tumor rejection experiment, Hepa-129 cells s.c. The following applies: peptide 50 μg/mice/day, days 10 to 20, combined with anti-PD1 antibodies. Type of series: in vivo, C3H/HeN mice. On the procedure:
For tumor rejection experiments, Hepa-129 cells (10^6 cells/mouse), were injected subcutaneously (sc) in C3H/HeN mice (n=6). Ten days later, when the tumor reached 5 mm in diameter, mice were randomly divided into different experimental groups. A group of mice were treated i.p. with anti-PD1 antibodies (BE0146, BioXcell) (50 μg/mouse). Antibody administration was repeated one week after this first administration. A group of mice treated with anti-PD1 also received the cyclic peptide SEQ ID NO: 50 from days 10 to 20 (50 μg/mice/day). Tumor size, presented as the average of two perpendicular diameters (millimeters), was measured at regular intervals. Mice were sacrificed when the mean tumor diameter was greater than 20 mm. Mice were housed in appropriated animal care facilities during the experimental period and handled following the international guidelines required for experimentation with animals. The experiments were approved by institutional ethical committee.

Setting [3] is: 20 min, read-out: % Remaining after 20 min.
[4] abbreviates: 60 min, read-out: % Remaining after 60 min.

Usually fraction remaining stands for what is left of the initial amount, in per cent. Turning to “RDFQSFRKMWPFFAM [SEQ ID NO: 1, RDFQSFRKMWPFFAM, reference compound]”, the amount remaining at 20 min, 1 μM in series [1] (setting [3]) and in series [2] (setting [3]) was 0% throughout. The fraction remaining at 1 h, 1 μM in series [1] (setting [4]) and in series [2] (setting [4]) was 0% throughout. In addition, the half-life in series [1] (peptide 1 μM) was under 2.5 min; in series [2] (peptide 1 μM, read-out: t1/2) it was under 2.5 min. Besides, the “effect on growth of CT26 colon cancer tumor” value with CT26 tumor cells was “not efficient”. The tumor volume entry with CT26 tumor cells (day 30 after injection of CT26 tumor cells) is on record as “about 2000 mm^3”.
With “RAFQAFRKMWPFFAM [SEQ ID NO: 50] (cyclo(RAFQAFRKMWPFFAM); also: R1 and R2 form a linker birradical which is -C(=O)-) [head-to-tail cyclic peptide]”, the “increase in the binding to FoxP3 with respect to p60 (SEQ ID NO: 1)” value in the series with human FOXP3 (FOXP3-6His) is “more than 2100%”. Besides, in the series on Hepa-129 cells, the antitumor activity entry is “remarkable antitumor activity”.
For “RAFQAFRKMWPFFAM (cyclo(R[dA]FQAFRKMWPFFAM); also: R1 and R2 form a birradical linker which is -C(=O)-) [SEQ ID NO: 51, head-to-tail cyclic peptide]”, the “effect on growth of CT26 colon cancer tumor” value with CT26 tumor cells is “prevents the growth of tumor”.
